System: hDMFa myofibroblast cells

Compound	Compound Myofibroblast Cytotoxicity Activity
OC1OC[C@H](O)[C@H](O)[C@H]1O (mixture of isomers) [Cmpd 560, L-Arabinose]	++++
OC[C@H]1O[C@H](O[C@H]2[C@H](O)[C@@H](O)[C@@H](O[C@H]3[C@H](O)[C@@H](O)C(O)O[C@@H]3CO)O[C@@H]2CO)[C@H](O)[C@@H](O)[C@@H]1O (mixture of isomers) [Cmpd 634, Maltotriose]	+++
CC(C)NCC(O)COc1ccc(CC(N)=O)cc1 (racemic) [Cmpd 14, (±)-Atenolol]	+++
CC1CCC(C(C)C)C(O)C1 (racemic) [Cmpd 16, (±)-Menthol]	++
CCCCCCCCCCCCCCCC(=O)OC(CC(=O)O)C[N+](C)(C)C.[Cl-] (racemic) [Cmpd 17, (±)-Palmitoylcarnitine chloride]	++
CC1=CCC2CC1C2(C)C (racemic) [Cmpd 18, (±)-α-Pinene]	++
O[C@H](CS)[C@H](O)CS (racemic) [Cmpd 368, DL-Dithiothreitol]	++++
CSCCC(N)C(=O)O (racemic) [Cmpd 369, DL-Methionine]	++
CC(C)(CO)C(O)C(=O)NCCCO (racemic) [Cmpd 370, DL-Panthenol]	+++
Cl.NCCCC(N)(C(=O)O)C(F)F (racemic) [Cmpd 371, DL-α-Difluoromethylornithine (hydrochloride hydrate)]	++
Cc1c(C)c2c(c(C)c1O)CCC(C)(CCCC(C)CCCC(C)CCCC(C)C)O2 (racemic) [Cmpd 373, DL-α-Tocopherol]	++
CCC/C=C1\OC(=O)C2=C1CCC=C2 [Cmpd 2, Z-Ligustilide]	++
C/C=C/c1cc(OC)c(OC)cc1OC [Cmpd 3, α-Asarone]	++
C=C1CC/C=C(\C)CC[C@@H]2[C@@H]1CC2(C)C [Cmpd 8, β-Caryophyllene]	+++
CCCCC/C=C\C/C=C\C/C=C\CCCCC(=O)O [Cmpd 9, γ-Linolenic Acid]	+++
CC12CCC(CC1=O)C2(C)C (stereo not drawn) [Cmpd 11, (+)-Camphor]	++
CC1=CC[C@@H]2C[C@H]1C2(C)C [Cmpd 19, (1R)-(+)-α-Pinene]	+
CC1=CC(=O)[C@H]2C[C@@H]1C2(C)C [Cmpd 20, (1S)-(−)-Verbenone]	++
CC1=CC[C@H]2C[C@@H]1C2(C)C [Cmpd 21, (1S)-(-)-α-Pinene]	++
C=C1CC[C@H]2C[C@@H]1C2(C)C [Cmpd 22, (1S)-(-)-β-Pinene]	++
Cl.N[C@H](C=O)[C@@H](O)[C@H](O)[C@H](O)CO [Cmpd 23, (2S,3R,4S,5R)-2-Amino-3,4,5,6-tetrahydroxyhexanal hydrochloride]	++
C=C(C)[C@@H]1CC=C(C)C(=O)C1 [Cmpd 24, (R)-(−)-Carvone]	++
C[C@@H](Oc1cc(-c2cnn(C3CCNCC3)c2)cnc1N)c1c(Cl)ccc(F)c1Cl [Cmpd 27, (R)-Crizotinib]	++++
C=C(C)[C@H]1CC=C(C)C(=O)C1 [Cmpd 28, (S)-(+)-Carvone]	++
C[C@H](Oc1cc(-c2cnn(C3CCNCC3)c2)cnc1N)c1c(Cl)ccc(F)c1Cl [Cmpd 29, (S)-Crizotinib]	++++
C[C@H](C(=O)O)c1ccc(-c2ccccc2)c(F)c1 [Cmpd 30, (S)-Flurbiprofen]	++++

Compound	Compound Myofibroblast Cytotoxicity Activity
COc1ccc2cc([C@H](C)C(=O)O)ccc2c1 [Cmpd 32, (S)-Naproxen]	++
CCCCCCCC/C=C\CCCCCCCC(=O)OCC(C[N+](C)(C)C)OC(=O)CCCCCCC/C=C\CCCCCCCC.[Cl-] (stereo not drawn) [Cmpd 33, 1,2-Dioleoyl-3-trimethylammoniumpropane (chloride)]	+++
Oc1ncnc2[nH]ncc12 [Cmpd 37]	+
C=CCCCCCCCCC(=O)O [Cmpd 39, 10-Undecenoic acid]	++
C=CCNC1=C2C[C@@H](C)C[C@H](OC)[C@H](O)[C@@H](C)/C=C(\C)[C@H](OC(N)=O)[C@@H](OC)/C=C\C=C(/C)C(=O)NC(=CC1=O)C2=O [Cmpd 40, 17-AAG (KOS953)]	+++
CCCCCCCCCCCCCCO [Cmpd 43, 1-Tetradecanol]	+
O=CC[C@H](O)[C@H](O)CO [Cmpd 46, 2-Deoxy-D-ribose]	++++
O=c1ccn([C@H]2C[C@H](O)[C@@H](CO)O2)c(=O)[nH]1 [Cmpd 47, 2-Deoxyuridine]	++
O=C(O)c1cc(O)cc(O)c1 [Cmpd 50, 3-5-Dihydroxybenzoic Acid]	++
CC(=O)O[C@@H]1CC[C@@]2(C)[C@@H](CC[C@]3(C)[C@@H]2C(=O)C=C2[C@@H]4[C@@H](C)[C@H](C)CC[C@]4(C)CC[C@]23C)[C@@]1(C)C(=O)O [Cmpd 51, 3-acetyl-11-keto-β-Boswellic Acid]	+++++
Cc1occc(=O)c1O [Cmpd 52]	++
CCCCC1OC(=O)c2ccccc21 (stereo not drawn) [Cmpd 54, 3-n-Butylphathlide]	++
NCc1ccc(C(=O)O)cc1 [Cmpd 56]	++
Nc1ccc(C(=O)O)c(O)c1 [Cmpd 59, 4-Aminosalicylic acid]	++
O=C(O)Cc1ccc(-c2ccccc2)cc1 [Cmpd 60, 4-Biphenylacetic acid]	++
O=C(O)c1ccc(O)cc1 [Cmpd 61]	++++
Cc1cc(=O)oc2cc(O)ccc12 [Cmpd 63, 4-Methylumbelliferone (4-MU)]	++++
Nc1ncn([C@@H]2O[C@H](CO)[C@@H](O)[C@H]2O)c(=O)n1 [Cmpd 64, 5-Azacytidine]	+++
O=Cc1ccc(CO)o1 [Cmpd 66]	++
O=c1ccc2cc(O)c(O)cc2o1 [Cmpd 69]	++
Br.NCCc1cc(O)c(O)cc1O [Cmpd 72]	++++
Oc1cccc2cccnc12 [Cmpd 74, 8-Hydroxyquinoline]	++
CC(=O)O[C@H]1CC[C@@]2(C)C(=CC[C@@H]3[C@@H]2CC[C@]2(C)C(c4cccnc4)=CC[C@@H]32)C1 [Cmpd 75, Abiraterone acetate]	+++
CC1(C)CCC(c2ccc(Cl)cc2)=C(CN2CCN(c3ccc(C(=O)NS(=O)(=O)c4ccc(N[C@H](CCN5CCOCC5)CSc5ccccc5)c(S(=O)(=O)C(F)(F)F)c4)cc3)CC2)C1 [Cmpd 77, ABT-263 (Navitoclax)]	+++++
CC(=O)Nc1ccccc1 [Cmpd 79, Acetanilide]	++++

Reference: patent publication US20260102359A1, “COMBINATION TREATMENT OF DERMAL AND TRANSDERMAL FIBROTIC DISEASES, DISORDERS AND ASSOCIATED PAIN AND INFLAMMATION” (ERESINA, LLC, priority 2022, published 2026)
